Assay results reported in patent US20090312356A1, “NICOTINIC AGONISTS SELECTIVE FOR THE ALPHA7 RECEPTOR SUBTYPE, THE PROCESS FOR THE PREPARATION THEREOF AND PHARMACEUTICAL CO[…]” (priority 2006, published 2009).

Columns and labels:
human α7 (hα7) receptors = molecular target: T1, human α7 (hα7) receptors (Homo sapiens, UniProt P36544); assay: whole cell patch-clamp electrophysiological recordings, hα7-expressing GH4C1 cells; format: cell-based; details: 50 nM
T1 construct: expressed in transfected cells
T1 sequence (P36544 23-502): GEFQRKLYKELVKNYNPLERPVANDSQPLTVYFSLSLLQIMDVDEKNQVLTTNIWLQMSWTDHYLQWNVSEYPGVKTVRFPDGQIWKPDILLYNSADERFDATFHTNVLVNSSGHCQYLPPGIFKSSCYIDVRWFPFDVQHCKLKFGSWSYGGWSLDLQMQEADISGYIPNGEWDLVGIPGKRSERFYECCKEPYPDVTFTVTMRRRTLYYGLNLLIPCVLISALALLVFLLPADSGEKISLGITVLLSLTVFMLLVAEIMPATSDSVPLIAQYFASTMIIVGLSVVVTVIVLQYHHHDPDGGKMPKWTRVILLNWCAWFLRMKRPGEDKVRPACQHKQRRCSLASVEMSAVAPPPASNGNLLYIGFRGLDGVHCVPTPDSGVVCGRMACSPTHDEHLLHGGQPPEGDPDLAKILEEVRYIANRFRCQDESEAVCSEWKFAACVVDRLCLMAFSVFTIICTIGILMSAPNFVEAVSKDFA
Experimental: α7 Subtype: The human α7 (hα7) receptors were stably expressed in transfected GH4C1 and grown in the presence of geneticin (G418 sulfate, 500 μg/mL) as previously described.^31

SMILES | melting point | effect on acetylcholine-induced hα7 current (human α7 (hα7) receptors)
BrC1=NN(c2ccccc2)C2(C1)CN1CCC2CC1 (racemic) | 203 to 207 °C | 
CN1OC2(CC1=O)CN1CCC2CC1 (racemic) | 182 to 183 °C | 
CCN1C[C@]2(COC(=O)c3ccccc3N3C(=O)C[C@H](C)C3=O)CC[C@H](OC)[C@@]34[C@@H]5C[C@H]6[C@H](OC)[C@@H]5[C@](O)(C[C@@H]6OC)[C@@](O)([C@@H](OC)[C@H]23)[C@@H]14 [methyllycaconitine] |  | blocked
c1ccc(COC2=NOC3(C2)CN2CCC3CC2)cc1 (racemic) | > 50 °C | 
